Test results published in publication PMC10419083, “Actions of a Novel Bacterial Topoisomerase Inhibitor against Neisseria gonorrhoeae Gyrase and Topoisomerase IV: Enhancement of Double-Stranded DNA Breaks” (International Journal of Molecular Sciences, 2023).

Molecular target: T1, human topoisomerase IIα (Homo sapiens, UniProt P11388)
T1 construct: gene TOP2A; recombinant wild-type, expressed in Saccharomyces cerevisiae and purified
Test: DNA cleavage assay, pBR322, agarose gel
Type: biochemical
Settings: single-stranded and double-stranded DNA break induction; 300 nM enzyme, 25 mM MgCl2, 500 mM KCl, pH 7.9, 37 °C, 10 min

T1 sequence (P11388 whole entry): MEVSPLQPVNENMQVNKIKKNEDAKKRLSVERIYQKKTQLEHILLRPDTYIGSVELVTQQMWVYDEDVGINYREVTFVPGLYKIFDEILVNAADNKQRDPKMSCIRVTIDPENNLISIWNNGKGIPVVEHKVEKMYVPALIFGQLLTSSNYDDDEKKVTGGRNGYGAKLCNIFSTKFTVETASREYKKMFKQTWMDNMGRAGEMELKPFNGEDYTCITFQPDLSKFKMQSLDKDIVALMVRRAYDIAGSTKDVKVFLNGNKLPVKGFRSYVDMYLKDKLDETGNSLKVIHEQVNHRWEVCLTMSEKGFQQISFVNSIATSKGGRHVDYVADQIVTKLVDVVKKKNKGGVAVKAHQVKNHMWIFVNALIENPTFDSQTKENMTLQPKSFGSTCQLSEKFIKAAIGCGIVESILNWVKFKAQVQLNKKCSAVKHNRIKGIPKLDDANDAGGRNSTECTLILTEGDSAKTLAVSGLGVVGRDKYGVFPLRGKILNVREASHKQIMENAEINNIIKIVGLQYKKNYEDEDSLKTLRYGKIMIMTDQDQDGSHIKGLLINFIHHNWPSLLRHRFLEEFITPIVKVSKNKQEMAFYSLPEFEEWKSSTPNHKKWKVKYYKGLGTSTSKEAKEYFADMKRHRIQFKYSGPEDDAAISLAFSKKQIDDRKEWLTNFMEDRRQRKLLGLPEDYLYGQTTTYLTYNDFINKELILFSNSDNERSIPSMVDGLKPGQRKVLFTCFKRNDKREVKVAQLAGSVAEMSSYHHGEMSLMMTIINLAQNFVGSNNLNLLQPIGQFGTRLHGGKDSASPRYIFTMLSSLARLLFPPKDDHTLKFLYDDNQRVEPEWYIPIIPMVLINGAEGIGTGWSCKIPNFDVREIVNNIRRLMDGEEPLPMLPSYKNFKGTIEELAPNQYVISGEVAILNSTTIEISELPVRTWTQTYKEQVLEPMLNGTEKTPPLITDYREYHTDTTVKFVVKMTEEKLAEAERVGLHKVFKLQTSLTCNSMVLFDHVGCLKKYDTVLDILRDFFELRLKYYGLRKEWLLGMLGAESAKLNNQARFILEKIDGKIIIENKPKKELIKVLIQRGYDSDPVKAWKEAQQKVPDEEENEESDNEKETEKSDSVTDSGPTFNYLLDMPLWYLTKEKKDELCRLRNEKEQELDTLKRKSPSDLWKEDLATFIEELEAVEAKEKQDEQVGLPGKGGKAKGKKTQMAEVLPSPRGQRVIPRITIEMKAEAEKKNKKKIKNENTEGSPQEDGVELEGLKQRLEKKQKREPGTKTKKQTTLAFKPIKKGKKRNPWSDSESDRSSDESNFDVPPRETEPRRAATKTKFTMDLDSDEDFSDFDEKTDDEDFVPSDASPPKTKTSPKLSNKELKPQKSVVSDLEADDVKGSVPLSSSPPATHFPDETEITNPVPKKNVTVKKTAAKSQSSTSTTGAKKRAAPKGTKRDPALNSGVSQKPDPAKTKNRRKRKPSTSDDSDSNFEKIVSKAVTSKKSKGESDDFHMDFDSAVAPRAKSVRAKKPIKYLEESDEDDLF

Structure (SMILES): COc1ccc2nccc(CC[C@H]3OC[C@H](NC(=O)c4ccc5c(c4)NC(=O)CO5)CO3)c2c1 [OSUAB-185]
- CC50: reasonable activity against the human type II enzyme, with CC50 values in the low µM
